From patent US10906905B2, “Five-membered heteroaryl ring bridged ring derivative, preparation method therefor and medical use thereof” (Jiangsu Hengrui Medicine Co., Ltd., priority 2016, dated 2021) come the findings set out here.

For one assay, the system named is NIH3T3 cell. The assay is described as follows: Inhibition of NIH3T3 cell proliferation (CellTiter-Glo). The settings on record: Mus musculus, 72 hours, 0.5% FBS. It is filed as cell-based.
Assay [1] concerns the target recombinant human VEGFR2 enzyme (Homo sapiens (Human), UniProt P35968). Nature of the assay: Inhibition of VEGFR2 kinase activity (Z'-LYTE Kinase Assay Kit). It is filed as biochemical. Particulars: ATP 50 μM; read-out: IC50 of inhibition effect on VEGFR2 kinase activity. The protocol: The inhibition effect of VEGFR2 kinase activity in vitro was determined by the following method.
The inhibition effect of the compounds of the present invention on VEGFR2 kinase activity was determined by the following experimental method:
After reaction at 25° C. for 2 hours, 5 μL of detection reagent was added to each well. […] The IC50 values of the compounds for enzyme inhibition were calculated using Graphpad prism software based on each concentration of the compound and the corresponding signal value thereof.

The target of a further assay is p38α kinase (Homo sapiens (Human), UniProt Q16539). The assay is described as follows: Inhibition of p38α kinase activity (p38α kinase assay kit, ADP-Glo). Particulars: ATP 50 μM; read-out: IC50 of inhibition effect on p38α kinase activity. It is filed as biochemical. The protocol: The inhibition of p38α kinase activity in vitro was determined by the following method.
The inhibition effect of the compounds of the present invention on p38a kinase activity was determined by the following experimental method:
p38α kinase assay kit (V9591, Promega) was used to assay enzyme activity. 2 μl of enzyme solution (the final concentration of enzyme in the reaction system was 0.5 ng/μL) formulated with reaction buffer (40 mM Tris pH 7.5, 20 mM MgCl2, 0.1 mg/ml BSA), 1 μl of a 3-fold gradient dilution of the compounds dissolved in 5% DMSO, and 2 μl of a mixed solution of ATP and p38 substrate peptide (the final concentration of ATP was 50 μM, and the final concentration of substrate was 0.2 μg/μL) were added successively to a 384-well plate (4514, Corning). After reaction at 27° C. for 2.5 hours, 5 μl of ADP-Glo solution in the kit was added to each well, then the plate was placed at 27° C. for 40 minutes. 10 μl of kinase assay reagent was then added to each well, then the plate was placed at 27° C. for 30 minutes. The chemiluminescence signal values were measured with a Victor 3 (PerkinElmer) multi-function microplate reader. The IC50 values of the compounds on enzyme inhibition were calculated using Graphpad prism software based on each concentration of the compound and the corresponding signal value thereof.

p38α kinase, sequence (Q16539 whole entry): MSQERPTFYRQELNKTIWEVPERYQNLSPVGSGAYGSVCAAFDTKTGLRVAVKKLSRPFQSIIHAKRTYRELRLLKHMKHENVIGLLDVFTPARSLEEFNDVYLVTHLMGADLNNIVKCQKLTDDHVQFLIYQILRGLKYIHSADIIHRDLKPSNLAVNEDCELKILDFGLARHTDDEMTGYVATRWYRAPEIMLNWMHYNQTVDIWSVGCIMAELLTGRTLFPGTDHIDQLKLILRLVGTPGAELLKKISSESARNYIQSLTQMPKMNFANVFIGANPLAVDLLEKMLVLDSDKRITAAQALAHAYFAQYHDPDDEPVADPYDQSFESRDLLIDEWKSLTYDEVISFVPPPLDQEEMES
recombinant human VEGFR2 enzyme, sequence (P35968 20-1356): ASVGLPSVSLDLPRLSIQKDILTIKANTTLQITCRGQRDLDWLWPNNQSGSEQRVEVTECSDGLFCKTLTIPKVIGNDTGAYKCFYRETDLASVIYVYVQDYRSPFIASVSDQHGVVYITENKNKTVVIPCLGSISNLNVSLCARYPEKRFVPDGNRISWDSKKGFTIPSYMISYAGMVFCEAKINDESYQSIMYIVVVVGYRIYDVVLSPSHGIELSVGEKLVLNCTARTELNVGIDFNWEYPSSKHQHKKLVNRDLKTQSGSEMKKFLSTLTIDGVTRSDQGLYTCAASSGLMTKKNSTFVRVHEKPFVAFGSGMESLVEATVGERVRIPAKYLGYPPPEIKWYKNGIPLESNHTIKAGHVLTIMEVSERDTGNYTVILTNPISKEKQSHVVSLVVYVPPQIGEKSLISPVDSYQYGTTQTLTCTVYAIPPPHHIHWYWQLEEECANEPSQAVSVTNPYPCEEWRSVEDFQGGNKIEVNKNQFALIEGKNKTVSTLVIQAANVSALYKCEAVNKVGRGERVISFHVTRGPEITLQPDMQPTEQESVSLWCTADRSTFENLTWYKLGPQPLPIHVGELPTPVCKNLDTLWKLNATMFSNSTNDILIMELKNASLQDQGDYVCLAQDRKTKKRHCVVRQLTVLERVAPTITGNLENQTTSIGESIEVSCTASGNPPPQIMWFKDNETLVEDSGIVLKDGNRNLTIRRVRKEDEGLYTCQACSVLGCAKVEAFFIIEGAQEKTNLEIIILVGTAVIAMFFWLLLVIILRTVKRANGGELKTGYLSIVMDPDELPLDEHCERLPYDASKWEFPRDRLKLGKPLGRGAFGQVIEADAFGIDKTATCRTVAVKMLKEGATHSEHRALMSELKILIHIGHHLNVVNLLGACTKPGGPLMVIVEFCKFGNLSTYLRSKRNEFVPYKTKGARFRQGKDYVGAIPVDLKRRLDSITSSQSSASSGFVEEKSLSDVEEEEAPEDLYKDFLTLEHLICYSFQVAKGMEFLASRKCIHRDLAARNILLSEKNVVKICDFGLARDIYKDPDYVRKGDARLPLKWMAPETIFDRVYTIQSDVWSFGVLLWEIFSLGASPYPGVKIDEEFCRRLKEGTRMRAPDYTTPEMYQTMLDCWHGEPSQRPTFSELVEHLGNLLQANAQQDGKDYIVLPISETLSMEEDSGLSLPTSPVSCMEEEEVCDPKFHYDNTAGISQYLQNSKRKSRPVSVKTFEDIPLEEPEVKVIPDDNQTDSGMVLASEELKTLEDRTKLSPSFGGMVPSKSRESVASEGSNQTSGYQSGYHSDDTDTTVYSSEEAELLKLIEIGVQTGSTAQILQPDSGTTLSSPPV

As usually defined, the IC50 is the concentration that gives 50% inhibition. Turning to `Cc1cccc(-c2nc3n(c2-c2ccc4nccc(C(N)=O)c4c2)[C@H]2CC[C@@H]3C2)n1` [Example 1-1, 6-((5S,8R)-2-(6-Methylpyridin-2-yl)-5,6,7,8-tetrahydro-5,8-methanoimidazo[1,2-a]pyridin-3-yl)quinoline-4-carboxamide], the IC50 in the assay with NIH3T3 cell was determined as 0.089 µM; in assay [1] it was 3.05 µM; on p38α kinase, 0.618 µM.
With `Cc1cccc(-c2nc3n(c2-c2ccc4nnc(C(N)=O)n4c2)[C@H]2CC[C@@H]3C2)n1` [Example 2-1, 6-((5S,8R)-2-(6-Methylpyridin-2-yl)-5,6,7,8-tetrahydro-5,8-methanoimidazo[1,2-a]pyridin-3-yl)[1,2,4]triazolo[4,3-a]pyridine-3-carboxamide], the IC50 was 0.044 µM with NIH3T3 cell, 1.16 µM in assay [1] and 1.71 µM at p38α kinase.
The corresponding values for `Cc1cccc(-c2nc3n(c2-c2ccnc(-c4ccc(S(C)(=O)=O)cc4)c2)[C@H]2CC[C@@H]3C2)n1` [Example 3-1, (5S,8R)-2-(6-Methylpyridin-2-yl)-3-(2-(4-(methylsulfonyl)phenyl)pyridin-4-yl)-5,6,7,8-tetrahydro-5,8-methanoimidazo[1,2-a]pyridine] are 0.028 µM, 2.89 µM and 0.686 µM.
The corresponding values for `NC(=O)c1ccnc2ccc(-c3c(-c4ccc(F)cn4)nc4n3[C@H]3CC[C@@H]4C3)cc12` [Example 39-1, 6-((5S,8R)-2-(5-Fluoropyridin-2-yl)-5,6,7,8-tetrahydro-5,8-methanoimidazo[1,2-a]pyridin-3-yl)quinoline-4-carboxamide] are 0.088 µM, 6.3 µM and 4.73 µM.
